Experiment [1] has as its system Mycobacterium tuberculosis. Put plainly: Antitubercular activity against INH/RIF-sensitive Mycobacterium tuberculosis clinical isolate S17 assessed as inhibition of bacterial growth incubated for 7 to 10 days by Alamar Blue staining based analysis. It counts as functional. The following applies: time 7-10 day. (In general: The colour change of resazurin is a common sign of viable cells or microbes.)

For experiment [2], the system named is Mycobacterium tuberculosis. In words: Antitubercular activity against INH/RIF-sensitive Mycobacterium tuberculosis clinical isolate S23 assessed as inhibition of bacterial growth incubated for 7 to 10 days by Alamar Blue staining based analysis. It counts as functional. Conditions: time 7-10 day.
For experiment [3], the system named is Mycobacterium tuberculosis. Put plainly: Antitubercular activity against Mycobacterium tuberculosis H37Rv assessed as inhibition of bacterial growth incubated for 7 to 10 days by Alamar Blue staining based analysis. Format: functional. Conditions: time 7-10 day.
Experiment [4] relates to Klebsiella pneumoniae. Put plainly: Antibacterial activity against Klebsiella pneumoniae ATCC BAA-2146 assessed as inhibition of bacterial growth incubated for 18 hrs by agar dilution method. Format: functional, organism-based.
Another experiment deals with Acinetobacter baumannii. In words: Antibacterial activity against Acinetobacter baumannii ATCC 19606 assessed as inhibition of bacterial growth incubated for 18 hrs by agar dilution method. Format: functional, organism-based. (In agar dilution, organisms are placed on agar that contains the substance at set levels.)
For experiment [5], the system named is Stenotrophomonas maltophilia. Put plainly: Antibacterial activity against Pseudomonas maltophilia ATCC 13636 assessed as inhibition of bacterial growth incubated for 18 hrs by agar dilution method. Format: functional, organism-based.
For experiment [6], the system named is Escherichia coli. In words: Antibacterial activity against Escherichia coli 16-1 assessed as inhibition of bacterial growth incubated for 18 hrs by agar dilution method. Format: functional, organism-based.
Another experiment concerns Pseudomonas aeruginosa. Put plainly: Antibacterial activity against Pseudomonas aeruginosa ATCC 27853 assessed as inhibition of bacterial growth incubated for 18 hrs by agar dilution method. Format: functional, organism-based.
In experiment [7] the test system is Praffidenbacterium reggii. In words: Antibacterial activity against […] ATCC 31052 assessed as inhibition of bacterial growth incubated for 18 hrs by agar dilution method. Format: functional.
For experiment [8], the system named is Klebsiella pneumoniae. In words: Antibacterial activity against Klebsiella pneumoniae ATCC 700603 assessed as inhibition of bacterial growth incubated for 18 hrs by agar dilution method. It counts as functional, organism-based.
The next experiment has as its system Klebsiella aerogenes. In words: Antibacterial activity against Enterobacter aerogenes ATCC 13048 assessed as inhibition of bacterial growth incubated for 18 hrs by agar dilution method. It counts as functional, organism-based.
In experiment [9] the test system is Escherichia coli. Put plainly: Antibacterial activity against Escherichia coli ATCC 2469 assessed as inhibition of bacterial growth incubated for 18 hrs by agar dilution method. It counts as functional, organism-based.
Experiment [10] concerns Escherichia coli. Put plainly: Antibacterial activity against Escherichia coli ATCC 25922 assessed as inhibition of bacterial growth incubated for 18 hrs by agar dilution method. Format: functional, organism-based.
The subject of a further experiment is Serratia marcescens. In words: Antibacterial activity against Serratia marcescens ATCC 21074 assessed as inhibition of bacterial growth incubated for 18 hrs by agar dilution method. It counts as functional, organism-based.
In a further experiment the test system is Enterobacter cloacae. Put plainly: Antibacterial activity against Enterobacter cloacae ATCC 43560 assessed as inhibition of bacterial growth incubated for 18 hrs by agar dilution method. Format: functional, organism-based.
In a further experiment the test system is Proteus mirabilis. In words: Antibacterial activity against Proteus mirabilis ATCC 49565 assessed as inhibition of bacterial growth incubated for 18 hrs by agar dilution method. Format: functional, organism-based.
Experiment [11] has as its system Escherichia coli. Put plainly: Antibacterial activity against Escherichia coli ATCC 35218 assessed as inhibition of bacterial growth incubated for 18 hrs by agar dilution method. It counts as functional, organism-based.
The subject of a further experiment is Shigella flexneri. In words: Antibacterial activity against Shigella flexneri ATCC 12022 assessed as inhibition of bacterial growth incubated for 18 hrs by agar dilution method. Format: functional, organism-based.

SMILES strings stand for the structures. Values after ≈ are worked out from the molar mass of the structure shown. Active and inactive are the calls of the source.

Turning to `NNC(=O)c1ccncc1` [ISONIAZID], the MIC (in general, the smallest concentration in the dilution series that meets the test's criterion for growth inhibition) in [1] is 0.125 µg/mL (≈ 0.911 µM); in [2], 0.125 µg/mL (≈ 0.911 µM); in [3] it was 0.06 µg/mL (≈ 0.438 µM).
In the case of `CC1(C)c2c[nH]c3cccc(c23)S[C@H]1C(=O)O`, the minimum inhibitory concentration (MIC) in experiment [1] came to 50 µg/mL (≈ 202 µM); in experiment [2] it was 12.5 µg/mL (≈ 50.5 µM); in [3], 32 µg/mL (≈ 129 µM). Moreover, the outcome (with Klebsiella pneumoniae [4]; in the experiment on Acinetobacter baumannii; in experiment [5]; with Escherichia coli [6]; with Pseudomonas aeruginosa; in [7]) was inactive. Also, the outcome in the experiment with Klebsiella pneumoniae [8], in the experiment with Klebsiella aerogenes, in the experiment on Escherichia coli [9], with Escherichia coli [10], with Serratia marcescens and in the experiment with Enterobacter cloacae was inactive. Moreover, the outcome with Proteus mirabilis, in the experiment with Escherichia coli [11] and in the experiment on Shigella flexneri was inactive.
Turning to `CO[C@H]1/C=C/O[C@@]2(C)Oc3c(C)c(O)c4c(O)c(c(/C=N/N5CCN(C)CC5)c(O)c4c3C2=O)NC(=O)/C(C)=C\C=C\[C@H](C)[C@H](O)[C@@H](C)[C@@H](O)[C@@H](C)[C@H](OC(C)=O)[C@@H]1C` [RIFAMPIN], the MIC in experiment [1], in [2] and in [3] was 0.25 µg/mL (≈ 0.304 µM) in each case.
Take `O=C(O)[C@H]1Cc2c[nH]c3cccc(c23)S1`: the MIC in experiment [1] turned out to be 0.78 µg/mL (≈ 3.56 µM); in [2], 0.78 µg/mL (≈ 3.56 µM); in experiment [3], 4 µg/mL (≈ 18.2 µM).
`C[C@H]1c2c[nH]c3cccc(c23)S[C@H]1C(=O)O` [CHUANGXINMYCIN]: the MIC is 0.78 µg/mL (≈ 3.34 µM) in experiment [1], 0.78 µg/mL (≈ 3.34 µM) in experiment [2] and 1 µg/mL (≈ 4.29 µM) in experiment [3]. In addition, the result (in the experiment with Klebsiella pneumoniae [4]; in the experiment with Acinetobacter baumannii; in experiment [5]; with Escherichia coli [6]; in the experiment on Pseudomonas aeruginosa; in experiment [7]) was inactive. Also, the result with Klebsiella pneumoniae [8], in the experiment with Klebsiella aerogenes, with Escherichia coli [9], with Escherichia coli [10], in the experiment with Serratia marcescens and in the experiment on Enterobacter cloacae was inactive. Also, the outcome with Proteus mirabilis and in the experiment with Escherichia coli [11] was inactive.

(Values after ChEMBL document CHEMBL5226381, “Iterative Methylation Leads to 3-Methylchuangxinmycin Production in Actinoplanes tsinanensis CPCC 200056” (2023).)
